Test results published in ChEMBL document CHEMBL5465560, “Selectivity Literature for EUbOPEN Chemogenomic Library” (2024).

Tests used:
[1] = biological target: T1, Serine/threonine-protein kinase 17B (Homo sapiens) (UniProt O94768); experiment: Selectivity interaction (Kinase panel (DSF assay)) EUB0001558a STK17B
T1 sequence (whole entry): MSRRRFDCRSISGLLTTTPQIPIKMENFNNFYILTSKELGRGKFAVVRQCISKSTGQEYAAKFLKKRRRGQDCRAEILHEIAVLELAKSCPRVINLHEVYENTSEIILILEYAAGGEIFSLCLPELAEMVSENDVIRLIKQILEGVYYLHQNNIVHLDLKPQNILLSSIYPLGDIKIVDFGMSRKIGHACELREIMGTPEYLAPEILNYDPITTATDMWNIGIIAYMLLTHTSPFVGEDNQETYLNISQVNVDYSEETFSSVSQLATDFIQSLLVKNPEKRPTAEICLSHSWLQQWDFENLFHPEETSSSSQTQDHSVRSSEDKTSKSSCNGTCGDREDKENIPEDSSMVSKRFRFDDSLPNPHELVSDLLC

[2] = biological target: Epidermal growth factor receptor (Homo sapiens, UniProt P00533); experiment: Selectivity interaction (Upstate Kinase Profiler service (Millipore)) EUB0000056c EGFR; conditions: at 1 µM
[3] = biological target: Casein kinase II subunit alpha' (Homo sapiens) (UniProt P19784); conditions: at 10 µM
[4] = biological target: T2, Serine/threonine-protein kinase TAO1 (Homo sapiens) (UniProt Q7L7X3); experiment: Selectivity interaction (KinomeScan (DiscoverX)) EUB0000695a TAOK1; conditions: at 100 nM
T2 sequence (whole entry): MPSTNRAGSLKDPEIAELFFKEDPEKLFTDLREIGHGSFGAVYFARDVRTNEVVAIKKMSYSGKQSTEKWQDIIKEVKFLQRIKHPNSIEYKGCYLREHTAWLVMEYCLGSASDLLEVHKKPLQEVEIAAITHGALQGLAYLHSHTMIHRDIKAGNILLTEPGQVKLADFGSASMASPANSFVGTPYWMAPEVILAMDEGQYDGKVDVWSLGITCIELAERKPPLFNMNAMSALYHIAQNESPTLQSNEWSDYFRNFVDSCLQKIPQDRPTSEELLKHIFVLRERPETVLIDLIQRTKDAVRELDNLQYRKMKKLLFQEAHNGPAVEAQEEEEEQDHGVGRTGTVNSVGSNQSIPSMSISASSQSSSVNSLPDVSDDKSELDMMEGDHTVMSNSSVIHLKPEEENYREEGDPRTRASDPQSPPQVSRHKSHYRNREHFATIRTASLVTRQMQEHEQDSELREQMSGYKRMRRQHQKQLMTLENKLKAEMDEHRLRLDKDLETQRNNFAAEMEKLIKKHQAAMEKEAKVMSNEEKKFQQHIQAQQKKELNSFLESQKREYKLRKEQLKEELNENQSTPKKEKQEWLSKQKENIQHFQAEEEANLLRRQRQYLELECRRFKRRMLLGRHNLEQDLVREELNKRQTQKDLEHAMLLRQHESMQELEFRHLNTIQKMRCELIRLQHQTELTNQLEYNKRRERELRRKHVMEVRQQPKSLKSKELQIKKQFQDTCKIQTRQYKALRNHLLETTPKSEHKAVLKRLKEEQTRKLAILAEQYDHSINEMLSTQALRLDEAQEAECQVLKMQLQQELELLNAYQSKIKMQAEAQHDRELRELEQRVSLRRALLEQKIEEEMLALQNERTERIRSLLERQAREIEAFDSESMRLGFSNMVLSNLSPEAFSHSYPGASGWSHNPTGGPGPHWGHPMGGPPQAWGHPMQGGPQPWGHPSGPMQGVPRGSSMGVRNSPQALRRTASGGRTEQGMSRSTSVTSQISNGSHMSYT

[5] = system: Tyrosine-protein kinase ABL1 (Homo sapiens), P00519 [F317L]; experiment: (§1) Selectivity interaction (KinomeScan (DiscoverX)) EUB0000045b ABL1
[6] = system: Tyrosine-protein kinase ABL1 (Homo sapiens), P00519 [F317I]; experiment: as §1
[7] = system: Tyrosine-protein kinase ABL1 (Homo sapiens), P00519 [Q252H]; experiment: as §1
[8] = biological target: Tyrosine-protein kinase ABL1 (Homo sapiens, UniProt P00519); experiment: as §1
[9] = system: Tyrosine-protein kinase ABL1 (Homo sapiens), P00519 [E255K]; experiment: as §1
[10] = system: Tyrosine-protein kinase ABL1 (Homo sapiens), P00519 [M351T]; experiment: as §1
[11] = system: Tyrosine-protein kinase ABL1 (Homo sapiens), P00519 [T315I]; experiment: as §1
[12] = system: Tyrosine-protein kinase ABL1 (Homo sapiens), P00519 [H396P]; experiment: as §1
[13] = system: Tyrosine-protein kinase ABL1 (Homo sapiens), P00519 [Y253F]; experiment: as §1
[14] = biological target: T3, Protein arginine N-methyltransferase 9 (Homo sapiens) (UniProt Q6P2P2); conditions: at 1 µM
T3 sequence (whole entry): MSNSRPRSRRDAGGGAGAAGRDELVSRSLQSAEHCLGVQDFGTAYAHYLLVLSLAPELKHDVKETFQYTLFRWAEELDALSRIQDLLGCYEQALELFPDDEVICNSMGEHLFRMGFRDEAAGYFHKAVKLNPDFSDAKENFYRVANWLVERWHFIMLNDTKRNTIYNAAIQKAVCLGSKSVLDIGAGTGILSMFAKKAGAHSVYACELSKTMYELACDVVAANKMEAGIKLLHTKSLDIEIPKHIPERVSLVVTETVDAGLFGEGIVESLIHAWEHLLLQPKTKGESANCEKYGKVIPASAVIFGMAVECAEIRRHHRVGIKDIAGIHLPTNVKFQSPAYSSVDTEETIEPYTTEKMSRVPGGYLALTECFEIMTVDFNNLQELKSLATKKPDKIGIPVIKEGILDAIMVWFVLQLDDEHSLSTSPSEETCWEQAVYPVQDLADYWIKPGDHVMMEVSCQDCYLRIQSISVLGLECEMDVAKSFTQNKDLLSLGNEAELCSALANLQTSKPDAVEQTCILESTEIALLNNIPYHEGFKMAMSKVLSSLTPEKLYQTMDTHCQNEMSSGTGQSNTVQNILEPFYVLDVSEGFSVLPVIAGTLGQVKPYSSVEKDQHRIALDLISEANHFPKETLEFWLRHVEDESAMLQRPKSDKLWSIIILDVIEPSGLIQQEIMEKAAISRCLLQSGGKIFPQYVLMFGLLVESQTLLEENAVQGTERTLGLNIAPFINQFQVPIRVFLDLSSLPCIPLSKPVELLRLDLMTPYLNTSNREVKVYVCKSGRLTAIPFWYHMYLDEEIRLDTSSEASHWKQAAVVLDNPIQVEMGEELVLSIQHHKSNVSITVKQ

Sequence of Casein kinase II subunit alpha' (Homo sapiens) (P19784 whole entry, looked up): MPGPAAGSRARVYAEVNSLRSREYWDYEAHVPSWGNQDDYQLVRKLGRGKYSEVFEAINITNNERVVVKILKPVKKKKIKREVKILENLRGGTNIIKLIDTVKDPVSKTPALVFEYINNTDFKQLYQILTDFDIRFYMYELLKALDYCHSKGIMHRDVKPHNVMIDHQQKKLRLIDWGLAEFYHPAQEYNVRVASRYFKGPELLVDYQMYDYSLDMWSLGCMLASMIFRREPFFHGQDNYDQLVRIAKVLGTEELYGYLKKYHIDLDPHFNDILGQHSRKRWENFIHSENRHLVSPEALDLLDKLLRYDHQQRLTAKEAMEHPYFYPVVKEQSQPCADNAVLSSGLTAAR
Sequence of Epidermal growth factor receptor (P00533 whole entry): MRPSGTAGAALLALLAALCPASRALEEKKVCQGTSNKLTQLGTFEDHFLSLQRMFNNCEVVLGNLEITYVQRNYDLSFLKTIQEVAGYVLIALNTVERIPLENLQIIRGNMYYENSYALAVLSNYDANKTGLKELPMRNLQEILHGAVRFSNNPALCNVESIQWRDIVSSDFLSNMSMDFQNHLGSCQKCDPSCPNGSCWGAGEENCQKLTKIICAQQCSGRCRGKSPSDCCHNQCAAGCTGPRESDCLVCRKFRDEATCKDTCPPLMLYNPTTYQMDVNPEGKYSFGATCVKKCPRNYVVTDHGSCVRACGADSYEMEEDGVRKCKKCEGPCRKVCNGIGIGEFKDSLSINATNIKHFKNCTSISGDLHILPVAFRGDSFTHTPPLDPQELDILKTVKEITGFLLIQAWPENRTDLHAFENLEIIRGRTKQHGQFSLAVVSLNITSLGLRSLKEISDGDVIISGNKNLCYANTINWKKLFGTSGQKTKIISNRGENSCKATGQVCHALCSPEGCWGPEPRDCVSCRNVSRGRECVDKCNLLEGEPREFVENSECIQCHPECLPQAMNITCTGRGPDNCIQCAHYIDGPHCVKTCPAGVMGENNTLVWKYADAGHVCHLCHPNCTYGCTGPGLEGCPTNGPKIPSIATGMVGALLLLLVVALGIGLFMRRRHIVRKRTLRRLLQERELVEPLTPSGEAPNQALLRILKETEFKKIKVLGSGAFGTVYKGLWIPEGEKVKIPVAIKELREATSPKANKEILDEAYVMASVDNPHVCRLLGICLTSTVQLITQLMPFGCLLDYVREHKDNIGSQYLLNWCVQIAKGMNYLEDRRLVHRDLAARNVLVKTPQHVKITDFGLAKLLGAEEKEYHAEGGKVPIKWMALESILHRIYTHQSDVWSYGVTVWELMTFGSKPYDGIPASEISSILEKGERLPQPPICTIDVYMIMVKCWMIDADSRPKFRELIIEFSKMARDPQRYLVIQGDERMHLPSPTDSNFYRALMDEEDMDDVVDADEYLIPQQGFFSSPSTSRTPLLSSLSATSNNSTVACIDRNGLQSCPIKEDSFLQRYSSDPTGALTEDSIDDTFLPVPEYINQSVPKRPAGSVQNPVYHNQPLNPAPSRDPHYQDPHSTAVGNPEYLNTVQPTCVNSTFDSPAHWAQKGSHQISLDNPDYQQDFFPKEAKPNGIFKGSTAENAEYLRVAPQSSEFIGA

CC(C)(O)[C@H](F)CN1Cc2cc(NC(=O)c3cnn4cccnc34)c(N3CCOCC3)cc2C1=O
dTM [1]: 1.7 K

Cc1ccc(-c2ccc3c(ccc4sc5c(c43)NC[C@@H](C)NC5=O)n2)cn1
% of inhibition [2]: -2%

Cc1cc([C@@H](C)Nc2ccccc2C(=O)O)c2nc(N3CCOCC3)cc(=O)n2c1 [AZD-6482]
% of control [3]: 100%

Cc1cc(F)c(C(=O)Nc2cccc(-c3nncn3C(C)C)n2)cc1-n1cnc(C2CC2)c1
% of control [4]: 100%

C=CC(=O)Nc1cc(-n2c(=O)ccc3cnc4ccc(-c5ccc(NS(C)(=O)=O)cc5)cc4c32)ccc1C
% of control ([5]; at 1 µM): 100%
% of control ([5]; at 10 µM): 100%
% of control ([6]; at 1 µM): 100%
% of control ([6]; at 10 µM): 100%
% of control ([7]; at 1 µM): 100%
% of control ([7]; at 10 µM): 100%
% of control ([8]; at 1 µM): 100%
% of control ([8]; at 10 µM): 73%
% of control ([9]; at 1 µM): 63%
% of control ([9]; at 10 µM): 77%
% of control ([10]; at 1 µM): 90%
% of control ([10]; at 10 µM): 86%
% of control ([11]; at 1 µM): 100%
% of control ([11]; at 10 µM): 100%
% of control ([12]; at 1 µM): 100%
% of control ([12]; at 10 µM): 100%
% of control ([13]; at 1 µM): 100%
% of control ([13]; at 10 µM): 76%

CNCCN1CCC(c2cc(CN(C)C(=O)c3cccc(Oc4ccccc4)c3)ccn2)CC1
% activity [14]: > 90%
